# Experimental data: patent US4298739A, “Novel carbostyril derivatives” (priority 1977, dated 1981)
# How the values were obtained:
# [1] = Acute toxicity test, oral administration to mice; assay type: in vivo; settings: mouse, in vivo, Male mice
# Description: The test compounds were administered orally to the mice and LD50 (mg/kg) of the compounds was determined.
# rabbit platelet [2] = assay: ADP-induced aggregation in rabbit platelets (AG-II Aggregometer); assay type: cell-based; design: inhibition: dose or concentration left out as unconfirmed; settings: Oryctolagus cuniculus, Platelet, read-out: Inhibition effect on ADP-induced aggregation in rabbit platelet; for inhibition at 100 µM (stock): 10^-4 mole; for inhibition at 10 µM (stock): 10^-5 mole; for inhibition at 1 µM (stock): 10^-6 mole
# Description: (§1) The platelet aggregation inhibitory effect is measured by using AG-II Aggregometer (manufactured by Bryston Manufacturing Co.). The blood sample used for the test is a 1/9 (by volume) mixture of sodium citrate and whole blood collected from rabbit. Said sample is subjected to 10-minute centrifugal separation at 1,000 r.p.m. to obtain a platelet rich plasma (PRP). The thus obtained PRP is separated, and the remaining blood sample is further subjected to 15-minute centrifugal separation at 3,000 r.p.m. to obtain a platelet poor plasma (PPP).
# (§2) The number of platelets in the PRP is counted by the Brecher-Clonkite Method, and the PRP is diluted with the PPP to prepare a PRP sample with platelet concentration of 300,000/mm^3 for the adenosine diphosphate (ADP)-induced aggregation test. There is also prepared a PRP sample with platelet concentration of 450,000/mm^3 for the collagen-induced aggregation test.
# (§3) 0.6 ml of said PRP sample is added into 0.01 ml of a solution of a test compound of a predetermined concentration and the mixture is placed in a 37° C. thermostat for one minute. Then 0.07 ml of an ADP or collagen solution is added to the mixture. Transmittance of this mixture is determined and the change of transmittance is recorded by using the aggregometer at stirrer speed of 1,100 r.p.m. In this test, Auren Beronal buffer (pH 7.35) is used for the preparation of the ADP or collagen solution. ADP is adjusted to a concentration of 7.5×10^-5 M, and the collagen solution is prepared by triturating 100 mg of collagen with 5 ml of said buffer and the supernatant is used as collagen inducer. Adenosine and acetylsalicylic acid are used as controls for the ADP-induced aggregation test and the collagen-induced aggregation test, respectively. The platelet aggregation inhibitory effect is measured in terms of percent inhibition with respect to the aggregation rate of the controls. The aggregation rate is calculated from the following formula:
# (§4) Aggregation rate=(c-a)/(b-a)×100
# (§5) b: transmittance of PRP containing a test compound and an aggregation inducer
# (§6) The inhibitory effect of the tested compounds on collagen-induced aggregation in rabbit platelets is shown in Table 1, and such effect on ADP-induced aggregation is shown in Table 2. The compounds tested are as follows.
# rabbit platelet [3] = assay: Collagen-induced aggregation in rabbit platelets (AG-II Aggregometer); assay type: cell-based; design: inhibition: dose or concentration left out as unconfirmed; settings: Oryctolagus cuniculus, Platelet, read-out: Inhibition effect on collagen induced aggregation in rabbit platelet; for inhibition at 100 µM (stock): 10^-4 mole; for inhibition at 10 µM (stock): 10^-5 mole; for inhibition at 1 µM (stock): 10^-6 mole
# Description: as §1, §2, §3, §4, §5, §6
Structure (SMILES),LD50 [1],inhibition (rabbit platelet [2]),inhibition (rabbit platelet [3]),inhibition at 100 µM (stock) (rabbit platelet [2]),inhibition at 10 µM (stock) (rabbit platelet [2]),inhibition at 100 µM (stock) (rabbit platelet [3]),inhibition at 10 µM (stock) (rabbit platelet [3]),inhibition at 1 µM (stock) (rabbit platelet [3]),inhibition at 1 µM (stock) (rabbit platelet [2]),inhibition at 0.1 µM (stock) (rabbit platelet [3]; 10^-7 mole)
"O=C1CCc2cc(OCCCC(=O)N(C3CCCCC3)C3CCCCC3Cl)ccc2N1 (stereo not drawn) [compound 7, 6-{3-[N-Cyclohexyl-N-(2-chlorocyclohexyl)aminocarbonyl]propoxy}-3,4-dihydrocarbostyril]",> 1000 mg/kg,82.9%,89.9%,,,,,,,
"CN(C(=O)CC(O)COc1ccc2[nH]c(=O)ccc2c1)C1CCCCC1 (stereo not drawn) [compound 8, 6-[2-Hydroxy-3-(N-methyl-N-cyclohexylaminocarbonyl)propoxy]carbostyril]",> 1000 mg/kg,,,91.7%,41.1%,85.5%,86.8%,2.9%,,
"CC(COc1ccc2[nH]c(=O)ccc2c1)CC(=O)N(C)C1CCCCC1 (stereo not drawn) [compound 9, 6-[3-(N-Methyl-N-cyclohexylaminocarbonyl)-2-methylpropoxy]carbostyril]",> 1000 mg/kg,,,92.8%,70.4%,100%,100%,100%,5.8%,11.2%
"CN(C(=O)CCCOc1ccc(O)c2c1CCC(=O)N2)C1CCCCC1 [compound 10, 8-Hydroxy-5-[3-(N-Methyl-N-cyclohexylaminocarbonyl)propoxy]-3,4-dihydrocarbostyril]",> 1000 mg/kg,,,53.9%,18.4%,91.8%,29.3%,,,
"COc1ccc(CCN(Cc2ccccc2)C(=O)CCCOc2ccc3c(c2)CCC(=O)N3)cc1OC [compound 11, 6-{3-[N-Benzyl-N-(2-3',4'-dimethoxyphenylethyl)aminocarbonyl]propoxy}-3,4-dihydrocarbostyril]",> 1000 mg/kg,,,87.5%,12.5%,88.1%,75.8%,28.1%,16.9%,
"CCN(C(=O)CCCOc1c(Cl)cc(Cl)c2c1CCC(=O)N2)c1ccccc1 [compound 12, 6,8-Dichloro-5-[3-(N-ethylanilinocarbonyl)propoxy]-3,4-dihydrocarbostyril]",> 1000 mg/kg,,,71.7%,33.8%,82.6%,65.2%,33.8%,12.7%,
"O=C(CCCOc1ccc2[nH]c(=O)ccc2c1)NC1CCCCC1 [compound 13, 6-[3-(N-Cyclohexylaminocarbonyl)propoxy]carbostyril]",> 1000 mg/kg,,,39.6%,24.8%,87.5%,45.8%,23.3%,18%,
"C=CCN(C(=O)CCCOc1ccc2c(c1)CCC(=O)N2)C1CCCCC1 [compound 14, 6-[3-(N-Allyl-N-cyclohexylaminocarbonyl)propoxy]-3,4-dihydrocarbostyril]",> 1000 mg/kg,,,41.3%,25.7%,82.4%,42.3%,15.7%,15.1%,
"CN(C(=O)CCCOc1ccc2c(c1)CCC(=O)N2)C1CCCCC1 [compound 15, 6-[3-(N-Methyl-N-cyclohexylaminocarbonyl)propoxy]-3,4-dihydrocarbostyril]",> 1000 mg/kg,,,88.3%,26.8%,94%,92.6%,34.1%,10.8%,
